Read-outs that look alike come from different tables or passages of the source. Residues, ends and D or L forms follow the SMILES beside them. No end group written: not given here.
How the values were obtained:
Aspergillus flavus [1] = assay: Disc plate diffusion assay; format: cell-based; details: purified peptide on filter paper disc
Experimental: Mycelium plugs from actively growing fungal cultures were placed in the center of the petri plate. After incubation at 27° C. to allow vegetative growth, samples were applied on sterile filter paper discs laid on the agar surface. Precipitation with ammonium sulfate. The 7th day culture filtrate was sequentially precipitated with 20, 40, 60 and 80% ammonium sulfate. […] After complete purification of the antifungal peptides as described in example 8, removing salt by purification on a […] cartridge (waters) and freeze drying, both peptides were quantified by weight. […] The antifungal assays are described in example 2.

Aspergillus flavus [2] = format: cell-based
Experimental: Description of the method for the antifungal assays. […] Each well contained 100 μl Potato Dextrose Agar (PDA, Difco Laboratories) and 100 μl of sample and was inoculated with 500 spores of Aspergillus flavus. Fungal growth was monitored by reading optical density (O.D.) at 560 nm (Dynatech microplate reader). […] After complete purification of the antifungal peptides as described in example 8, removing salt by purification on a […] cartridge (waters) and freeze drying, both peptides were quantified by weight. […] The antifungal assays are described in example 2.

Micrococcus luteus [3] = details: cited from earlier work
[4] = system: Micrococcus luteus protoplast; details: cited from earlier work
[5] = system: various yeasts, fungi and phytopathogenic fungi; details: cited from earlier work
bacteria = details: cited from earlier work
[6] = system: Cladosporium cladosporioides; details: cited from earlier work
Candida tropicalis = details: cited from earlier work
Saccharomyces cerevisiae = details: cited from earlier work
Mycosphaerella pinodes = details: cited from earlier work
Aspergillus niger [7] = details: cited from earlier work
Fusarium oxysporum [8] = details: cited from earlier work
Candida albicans [9] = details: cited from earlier work
Kluyveromyces bulgaris [10] = details: cited from earlier work
Neurospora crassa = details: cited from earlier work
Azotobacter vinelandii = details: cited from earlier work
Botrytis cinerea = details: cited from earlier work
Rhodotorula pillimanae = details: cited from earlier work
Penicillium chysogenum = details: cited from earlier work
Pleospora herbarum = details: cited from earlier work
Sclerotina fructigena = details: cited from earlier work
Escherichia coli K12 = details: cited from earlier work
[11] = system: Trichophyton mentagrophytes; details: cited from earlier work
Stemphylium radicinum = details: cited from earlier work
Micrococcus luteus [12] = details: cited from earlier work; remark: listed apart in the source
Staphylococcus aureus = details: cited from earlier work
Sclerotina sclerotiorum = details: cited from earlier work
Bacillus cereus = details: cited from earlier work
Streptomyces albus G = details: cited from earlier work
Sarcinia lutea = details: cited from earlier work
Brucella brochiseptica = details: cited from earlier work
Ceratocystis fagacearum = details: cited from earlier work
Cryphonectria parasitica = details: cited from earlier work
Verticillium dahliae = details: cited from earlier work
Ophiostoma ulmi = details: cited from earlier work
Absydia corymbifera = details: cited from earlier work
Aspergillus niger [13] = details: cited from earlier work; remark: listed apart in the source
Fusarium oxysporum [14] = details: cited from earlier work; remark: listed apart in the source
Saccharomyces cerevisae = details: cited from earlier work
Kluyveromyces bulgaris [15] = details: cited from earlier work; remark: listed apart in the source
Candida albicans [16] = details: cited from earlier work; remark: listed apart in the source

Iturin A (NYNQPNS; also: cyclic with β-amino fatty acid, ring closure not described) [cyclic lipopeptide of Bacillus subtilis: Asn Tyr Asn Gln Pro Asn Ser with β amino acid n-C14, i-C15, a-C15]
Disc plate diffusion assay Minimal amount to inhibit hyphal growth (Aspergillus flavus [1]): > 50 µg | Microtiter plate Minimal inhibitory concentration (MIC) (Aspergillus flavus [2]; Aspergillus flavus, 500 spores per well, O.D. 560 nm): 250 µM | Inhibition of growth of Micrococcus luteus (Micrococcus luteus [3]): inhibited the growth | Lysis of Micrococcus luteus protoplast [4]: able to lyse

Bacillomycin F (NYNQPNT; also: cyclic lipopeptide with β-amino fatty acid, ring closure not described) [iturin lipopeptide: Asn Tyr Asn Gln Pro Asn Thr with β amino acid i-C16, i-C17, a-C17]
Antifungal activity [5]: strong antifungal activity | Antibacterial activity (bacteria): weak antibacterial activity

CCCCCCCCCCCCC[C@@H]1CC(=O)N[C@@H](CC(N)=O)C(=O)N[C@H](Cc2ccc(O)cc2)C(=O)N[C@H](CC(N)=O)C(=O)N2CCC[C@H]2C(=O)N[C@@H](CCC(=O)O)C(=O)N[C@H](CO)C(=O)N[C@@H]([C@@H](C)O)C(=O)N1 [a2] (HELM PEPTIDE1{E.[dS].T.[CCCCCCCCCCCCC[C@H](CC(=O)[*:2])N[*:1]].N.[dY].[dN].P}$PEPTIDE1,PEPTIDE1,1:R1-8:R2$$$V2.0)
Disc plate diffusion assay Minimal amount to inhibit hyphal growth (Aspergillus flavus [1]): 3 µg | Microtiter plate Minimal inhibitory concentration (MIC) (Aspergillus flavus [2]): 130 µM

Bacillomycin L (DYNSQST; also: cyclic lipopeptide with β-amino fatty acid, ring closure not described) [iturin lipopeptide: Asp Tyr Asn Ser Gln Ser Thr with β amino acid n-C14, i-C15, a-C15]
Inhibition of growth of Micrococcus luteus (Micrococcus luteus [3]): inhibited the growth | Lysis of Micrococcus luteus protoplast [4]: no effect

Bacillomycin Fc
MIC [6]: 40 µg/mL | MIC (Candida tropicalis): > 200 µg/mL | MIC (Saccharomyces cerevisiae): 30 µg/mL | MIC (Mycosphaerella pinodes): 30 µg/mL | MIC (Aspergillus niger [7]): 30 µg/mL | MIC (Fusarium oxysporum [8]): > 200 µg/mL | MIC (Candida albicans [9]): > 200 µg/mL | MIC (Kluyveromyces bulgaris [10]): 40 µg/mL

Bacillomycin Fa
MIC (Neurospora crassa): 80 µg/mL | MIC (Azotobacter vinelandii): > 400 µg/mL | MIC (Botrytis cinerea): 20 µg/mL | MIC (Rhodotorula pillimanae): 80 µg/mL | MIC (Candida tropicalis): 40 µg/mL | MIC (Saccharomyces cerevisiae): 10 µg/mL | MIC (Mycosphaerella pinodes): 10 µg/mL | MIC (Penicillium chysogenum): 20 µg/mL | MIC (Pleospora herbarum): 10 µg/mL | MIC (Aspergillus niger [7]): 40 µg/mL | MIC (Sclerotina fructigena): 40 µg/mL | MIC (Escherichia coli K12): > 400 µg/mL | MIC [11]: 20 µg/mL | MIC (Fusarium oxysporum [8]): > 320 µg/mL | MIC (Candida albicans [9]): 40 µg/mL | MIC (Stemphylium radicinum): 320 µg/mL | MIC (Micrococcus luteus [12]): 200 µg/mL | MIC (Staphylococcus aureus): > 400 µg/mL | MIC (Sclerotina sclerotiorum): 50 µg/mL | MIC (Bacillus cereus): > 400 µg/mL | MIC (Streptomyces albus G): > 400 µg/mL | MIC (Sarcinia lutea): > 400 µg/mL | MIC (Brucella brochiseptica): > 400 µg/mL

Bacillomycin Lc
Antifungal activity (Ceratocystis fagacearum): antifungal activity | Antifungal activity (Cryphonectria parasitica): antifungal activity | Antifungal activity (Verticillium dahliae): antifungal activity | Antifungal activity (Ophiostoma ulmi): antifungal activity

Bacillomycin D (NYNPEST; also: cyclic lipopeptide with β-amino fatty acid, ring closure not described) [iturin lipopeptide: Asn Tyr Asn Pro Glu Ser Thr with β amino acid n-C14, i-C15, a-C15]
Antifungal activity (Absydia corymbifera): antifungal | Antifungal activity (Aspergillus niger [13]): antifungal | Antifungal activity (Fusarium oxysporum [14]): antifungal | Antifungal activity (Saccharomyces cerevisae): antifungal | Antifungal activity (Kluyveromyces bulgaris [15]): antifungal | Antifungal activity (Candida albicans [16]): antifungal

Bacillomycin Fb
MIC [6]: 25 µg/mL | MIC (Candida tropicalis): > 200 µg/mL | MIC (Saccharomyces cerevisiae): 25 µg/mL | MIC (Mycosphaerella pinodes): 100 µg/mL | MIC (Aspergillus niger [7]): 25 µg/mL | MIC (Fusarium oxysporum [8]): > 200 µg/mL | MIC (Candida albicans [9]): > 200 µg/mL | MIC (Kluyveromyces bulgaris [10]): 75 µg/mL

Mycosubtilin (NYNQPSN; also: cyclic lipopeptide with β-amino fatty acid, ring closure not described) [Mycosubtlin, iturin lipopeptide: Asn Tyr Asn Gln Pro Ser Asn with β amino acid i-C16, a-C17]
Inhibition of growth of Micrococcus luteus (Micrococcus luteus [3]): inhibited the growth | Lysis of Micrococcus luteus protoplast [4]: able to lyse

a1: cyclic lipopeptide from B. subtilis AU195, bacillomycin D family, [M+H] 1045.5, linearised sequence STNYNPE, β-amino fatty acid believed of 15 carbons (not fully specified; also: cyclic lipopeptide, C15 β-amino fatty acid (hydroxy fatty acid at Thr suggested), sequence given after Glu-C linearisation)
Disc plate diffusion assay Minimal amount to inhibit hyphal growth (Aspergillus flavus [1]): 15 µg
